# Reference: patent US20060257432A1, “Pharmaceutical formulations of xanthogenates and inhibitors of viral nucelic acid replication” (priority 2003, published 2006)
# Assays:
# HSV-1 (Wal strain) = assay: Experimental skin infection of mice with HSV-1, ointment treatment; assay type: in vivo, mice (Balb-C strain); conditions: HSV-1-infected Balb-C mice, 5% ointment twice daily from day 4 after infection; for survival: 14 days, placebo: 3 of 10 survived
# Experimental: One part (by weight) D609, one part (by weight) potassium salt of decanoic acid, and four parts (by weight) cholesterol were mixed in a mortar. Subsequently, propyleneglycol (final concentration 10%) and vaseline were added such that the final concentration of D609 was 5%. The same procedure was used to produce ointments containing 5% aciclovir or 5% D609 and 5% aciclovir. A placebo ointment containing neither of the two agents was produced using the analogous procedure.
# Ten mice (Balb-C strain) each were shaved on their upper leg and six scratches in the skin were made with a cannula in an area of 5×5 mm. Subsequently, a cotton bud was used to apply 50 μl of a HSV-1 suspension (Wal strain, 10^8 plaque-forming units/ml). The treatment (twice daily) was initiated four days after infection. The symptoms, “widespread lesions”, “hind leg paralysis”, and survival were recorded in the protocol.
# The result is shown graphically in FIGS. 2a to 2d. […] Triangles indicate the surviving animals in each case, squares the animals with hind leg paralysis, and diamonds the animals with widespread lesions.
# [1] = test system: herpes simplex virus (Type-1, strain ANG); assay: Plaque formation of herpes simplex virus in Calu-6 cells; assay type: cell-based; conditions: for number of plaques: Calu-6 cells, 48 h
# Experimental: Human lung carcinoma cells (Calu-6) were infected with 30 plaque-forming units of herpes simplex virus (Type-1, strain ANG) in Linbro plates. Cell culture medium (MEM containing 10% fetal calf serum, 0.85 g/l sodium bicarbonate, and 0.5% carboxymethylcellulose) containing either 0, 5 or 10 μg/ml exo/exo-tricyclo[5,2,1,0^2,6]-9yl-xanthogenate (D609) was added two hours after infection. The cultures were treated with aciclovir at the same time. All samples were processed as quadruplicates. The cells were incubated for 48 h at 37° C. under CO2 gassing (5%). Then the medium was decanted, the cells were fixed with 3% formalin and stained with 0.5% crystal violet. After drying at room temperature, the number of plaques formed was determined.
Compound,healing of lesions and paralysis (HSV-1 (Wal strain)),survival (HSV-1 (Wal strain)),"number of plaques ([1]; 5 μg/ml D609 alone, no-D609 control 32.75±11)","number of plaques ([1]; 10 μg/ml D609 alone, no-D609 control 32.75±11)",effect on plaque formation ([1]; D609 alone at 5 or 10 μg/ml),"number of plaques ([1]; aciclovir 0.16 μM alone, not statistically significant (p=0.4))","increase of the effect of aciclovir in cell culture ([1]; in the presence of low, antivirally ineffective concentrations of the xanthogenate)"
"S=C(S)OC1CC2CC1C1CCCC21 (stereo not drawn) [D609, exo/exo-tricyclo[5,2,1,0^2,6]-9yl-xanthogenate]",almost completely healed,survival rate higher,32±3,33±6,no effect,–,–
Nc1nc2c(ncn2COCCO)c(=O)[nH]1 [aciclovir],almost completely healed,survival rate higher,–,–,–,30±11,increased up to five-fold
